Reference: ChEMBL document CHEMBL1201862, “PubChem BioAssay data set” (2004)
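In this assay, cells in 96-well plates receive the compound at five concentrations for 48 hours. Endpoints are linearly interpolated between the surrounding concentrations. At the GI50, growth is halved.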 Active and inactive are the calls of the source. Cut-off read from the data, not from the text of the source: active = GI50 up to about 1.1 µM and inactive = higher.

Experiments:
Experiment in all cases: growth of human tumour cells (NCI), 48 h
SF-268 = tested on: SF-268
SF-295 = tested on: SF-295
786-0 = tested on: 786-0
SR = tested on: SR
K562 = tested on: K562
SN12C = tested on: SN12C
NCI-H23 = tested on: NCI-H23
M14 = tested on: M14
LOX IMVI = tested on: LOX IMVI
T47D = tested on: T47D
RXF 393 = tested on: RXF 393
Malme-3M = tested on: Malme-3M
MOLT-4 = tested on: MOLT-4
HCC 2998 = tested on: HCC 2998
OVCAR-4 = tested on: OVCAR-4
HOP-92 = tested on: HOP-92
ACHN = tested on: ACHN
U-251 = tested on: U-251
COLO 205 = tested on: COLO 205
SNB-19 = tested on: SNB-19
A498 = tested on: A498
NCI-H522 = tested on: NCI-H522
TK-10 = tested on: TK-10
HCT-15 = tested on: HCT-15
SNB-75 = tested on: SNB-75
A549 = tested on: A549
KM12 = tested on: KM12
NCI-H460 = tested on: NCI-H460
MDA-MB-231 = tested on: MDA-MB-231
PC-3 = tested on: PC-3
OVCAR-5 = tested on: OVCAR-5
NCI/ADR-RES = tested on: NCI/ADR-RES
DU-145 = tested on: DU-145
SK-OV-3 = tested on: SK-OV-3
SW-620 = tested on: SW-620
HOP-62 = tested on: HOP-62
CAKI-1 = tested on: CAKI-1
HT-29 = tested on: HT-29
EKVX = tested on: EKVX
Hs-578T = tested on: Hs-578T
RPMI-8226 = tested on: RPMI-8226
UO-31 = tested on: UO-31
OVCAR-3 = tested on: OVCAR-3
NCI-H226 = tested on: NCI-H226
UACC-257 = tested on: UACC-257
SF-539 = tested on: SF-539
MDA-MB-435 = tested on: MDA-MB-435
BT-549 = tested on: BT-549
UACC-62 = tested on: UACC-62
SK-MEL-5 = tested on: SK-MEL-5
SK-MEL-2 = tested on: SK-MEL-2
MCF7 = tested on: MCF7
SK-MEL-28 = tested on: SK-MEL-28
HCT-116 = tested on: HCT-116
CCRF-CEM = tested on: CCRF-CEM
OVCAR-8 = tested on: OVCAR-8
MDA-N = tested on: MDA-N
HL-60 = tested on: HL-60
IGROV-1 = tested on: IGROV-1

Measured: GI50

CN(C)/C=N/S(=O)(=O)c1nn2c(C=O)c(-c3ccc(Cl)cc3)nc2s1
1.61 µM: HCT-15
active: SR 0.767 µM | K562 0.403 µM | M14 0.962 µM | MOLT-4 0.52 µM | NCI-H522 0.557 µM | SW-620 0.444 µM | CAKI-1 0.995 µM | HT-29 0.196 µM | RPMI-8226 0.785 µM | UO-31 1.02 µM | BT-549 0.713 µM | MCF7 0.897 µM | HCT-116 0.693 µM | CCRF-CEM 0.228 µM
inactive: SF-268 3.46 µM | SF-295 14.4 µM | 786-0 1.25 µM | SN12C 2.23 µM | NCI-H23 2.34 µM | LOX IMVI 1.25 µM | T47D 1.67 µM | RXF 393 1.51 µM | Malme-3M 1.47 µM | HCC 2998 5.25 µM | OVCAR-4 1.81 µM | HOP-92 2.34 µM | ACHN 1.15 µM | U-251 2.95 µM | COLO 205 1.28 µM | SNB-19 14.3 µM | A498 16.2 µM | TK-10 1.5 µM | SNB-75 11.2 µM | A549 8.26 µM | KM12 3.63 µM | NCI-H460 6.28 µM | MDA-MB-231 2.11 µM | PC-3 2.46 µM | OVCAR-5 1.75 µM | NCI/ADR-RES 2.22 µM | DU-145 2.12 µM | SK-OV-3 15.8 µM | HOP-62 13.2 µM | EKVX 3.28 µM | Hs-578T 3.43 µM | OVCAR-3 1.49 µM | NCI-H226 4.25 µM | UACC-257 2.7 µM | SF-539 2.13 µM | MDA-MB-435 2.16 µM | UACC-62 3.91 µM | SK-MEL-5 1.58 µM | SK-MEL-2 7.11 µM | SK-MEL-28 1.62 µM | OVCAR-8 1.31 µM

CC(C)C(=O)OCC1CCCN2CCCCC12 (stereo not given)
53 µM: HCT-15
inactive: SF-268 > 100 µM | SF-295 > 100 µM | 786-0 64.4 µM | K562 51.3 µM | SN12C > 100 µM | NCI-H23 > 100 µM | M14 > 100 µM | LOX IMVI 82 µM | RXF 393 > 100 µM | Malme-3M > 100 µM | MOLT-4 50.8 µM | HCC 2998 28.8 µM | OVCAR-4 > 100 µM | HOP-92 > 100 µM | ACHN > 100 µM | U-251 > 100 µM | MDA-N > 100 µM | COLO 205 51.1 µM | SNB-19 > 100 µM | A498 > 100 µM | TK-10 > 100 µM | SNB-75 > 100 µM | A549 74 µM | KM12 > 100 µM | NCI-H460 38.7 µM | HL-60 39.8 µM | MDA-MB-231 45.4 µM | PC-3 79.4 µM | OVCAR-5 > 100 µM | NCI/ADR-RES > 100 µM | DU-145 > 100 µM | SK-OV-3 > 100 µM | SW-620 > 100 µM | HOP-62 > 100 µM | CAKI-1 > 100 µM | HT-29 30.5 µM | EKVX > 100 µM | Hs-578T > 100 µM | RPMI-8226 95.3 µM | UO-31 62.7 µM | OVCAR-3 > 100 µM | NCI-H226 > 100 µM | UACC-257 > 100 µM | SF-539 > 100 µM | MDA-MB-435 > 100 µM | BT-549 21.5 µM | UACC-62 68.1 µM | SK-MEL-5 > 100 µM | SK-MEL-2 > 100 µM | MCF7 48.1 µM | SK-MEL-28 97.9 µM | HCT-116 57.5 µM | CCRF-CEM 51.3 µM | OVCAR-8 > 100 µM

CCOC(=O)c1cc2c(OC(C)=O)ccc(OC(C)=O)c2s1
inactive: SF-268 1.79 µM | SF-295 6.9 µM | 786-0 2.49 µM | SR 3.27 µM | SN12C 2.25 µM | NCI-H23 1.99 µM | M14 1.77 µM | T47D 1.48 µM | RXF 393 1.56 µM | Malme-3M 1.93 µM | MOLT-4 2.58 µM | HCC 2998 8.97 µM | OVCAR-4 4.75 µM | HOP-92 1.44 µM | ACHN 1.61 µM | U-251 2.97 µM | COLO 205 2.17 µM | SNB-19 7.03 µM | A498 5.28 µM | TK-10 6.82 µM | SNB-75 2.07 µM | A549 10.7 µM | KM12 4.52 µM | NCI-H460 5.65 µM | MDA-MB-231 2.02 µM | PC-3 1.96 µM | OVCAR-5 6.19 µM | NCI/ADR-RES 2.2 µM | DU-145 4.83 µM | SK-OV-3 9.4 µM | SW-620 2.1 µM | HOP-62 10.3 µM | IGROV-1 1.76 µM | CAKI-1 4.35 µM | HT-29 3.02 µM | EKVX 2.82 µM | Hs-578T 1.69 µM | RPMI-8226 2.31 µM | UO-31 1.43 µM | OVCAR-3 1.61 µM | NCI-H226 12.9 µM | UACC-257 1.95 µM | SF-539 1.73 µM | MDA-MB-435 2.67 µM | BT-549 2.13 µM | UACC-62 1.82 µM | SK-MEL-5 2.29 µM | SK-MEL-2 2.62 µM | MCF7 3.03 µM | SK-MEL-28 2.15 µM | HCT-116 2.81 µM | CCRF-CEM 2.16 µM | OVCAR-8 1.66 µM
active: LOX IMVI 0.891 µM | NCI-H522 0.301 µM | HL-60 0.845 µM
1.75 µM: HCT-15

CC(C)CCn1c(=O)c2c(=O)[nH][nH]c2c2ccccc21
inactive: SF-295 > 100 µM | 786-0 > 100 µM | SR > 100 µM | K562 > 100 µM | SN12C > 100 µM | NCI-H23 > 100 µM | LOX IMVI > 100 µM | Malme-3M > 100 µM | MOLT-4 > 10 µM | HCC 2998 > 100 µM | OVCAR-4 > 100 µM | HOP-92 > 100 µM | ACHN > 100 µM | U-251 > 100 µM | MDA-N > 100 µM | COLO 205 > 100 µM | SNB-19 > 100 µM | A498 > 100 µM | NCI-H522 > 100 µM | TK-10 > 100 µM | SNB-75 > 10 µM | A549 > 100 µM | KM12 > 100 µM | NCI-H460 > 100 µM | HL-60 > 100 µM | MDA-MB-231 > 100 µM | PC-3 > 100 µM | OVCAR-5 > 100 µM | NCI/ADR-RES > 100 µM | DU-145 > 100 µM | SW-620 > 100 µM | HOP-62 > 100 µM | IGROV-1 > 100 µM | HT-29 > 100 µM | EKVX > 100 µM | Hs-578T > 100 µM | RPMI-8226 > 100 µM | UO-31 > 100 µM | OVCAR-3 > 100 µM | NCI-H226 > 100 µM | UACC-257 > 100 µM | SF-539 > 100 µM | MDA-MB-435 > 100 µM | BT-549 > 100 µM | SK-MEL-5 > 100 µM | MCF7 > 100 µM | SK-MEL-28 > 100 µM | HCT-116 > 100 µM | CCRF-CEM > 100 µM | OVCAR-8 > 100 µM
> 100 µM: HCT-15

Cc1ccc(C=C(C(=O)O)C(=O)O)o1
inactive: SF-268 > 100 µM | SF-295 > 100 µM | 786-0 > 100 µM | SR > 100 µM | K562 > 100 µM | SN12C > 100 µM | NCI-H23 > 100 µM | M14 > 100 µM | LOX IMVI > 100 µM | RXF 393 > 100 µM | Malme-3M > 100 µM | MOLT-4 > 100 µM | HCC 2998 > 100 µM | ACHN > 100 µM | U-251 > 100 µM | MDA-N > 100 µM | COLO 205 > 100 µM | SNB-19 > 100 µM | A498 > 100 µM | NCI-H522 > 100 µM | TK-10 > 100 µM | SNB-75 > 100 µM | A549 > 100 µM | KM12 > 100 µM | NCI-H460 > 100 µM | HL-60 > 100 µM | MDA-MB-231 > 100 µM | PC-3 > 100 µM | OVCAR-5 > 100 µM | NCI/ADR-RES > 100 µM | DU-145 > 100 µM | SK-OV-3 > 100 µM | SW-620 > 100 µM | HOP-62 > 100 µM | IGROV-1 > 100 µM | CAKI-1 > 100 µM | HT-29 > 100 µM | EKVX > 100 µM | Hs-578T > 100 µM | RPMI-8226 > 100 µM | UO-31 > 100 µM | OVCAR-3 > 100 µM | NCI-H226 > 100 µM | UACC-257 > 100 µM | SF-539 > 100 µM | MDA-MB-435 > 100 µM | BT-549 > 100 µM | UACC-62 > 100 µM | SK-MEL-5 > 100 µM | SK-MEL-2 > 100 µM | MCF7 > 100 µM | SK-MEL-28 > 100 µM | HCT-116 > 100 µM | CCRF-CEM > 100 µM | OVCAR-8 > 100 µM
> 100 µM: HCT-15
